Measured values published in PMC7450057, “Enhancing intracellular accumulation and target engagement of PROTACs with reversible covalent chemistry” (Nature Communications, 2020).
Values joined by “and” are separate entries in the source; they are usually repeats but may differ in a detail not shown here. Equal values may be shown once.

Legend:
IKZF1 = assay: Splenic IKZF1 level in mice after single RC-1 injection (western blot); type: in vivo, ICR mice; details: for IKZF1 level, mean: Figure 5d, DMSO = 100; for IKZF1 quantification: Supplementary Figure 8, individual animals
Method: (§1) To investigate the protein degradation effect of RC-1 in vivo, mice were subjected to single RC-1 administration at the dose of 50 or 100 mg kg^−1 (i.p.) or seven once-daily RC-1 administration at the dose of 20 mg kg^−1 (i.p.) (n = 2–3). Twenty-four hours after the one-time RC-1 injection or 24 h after the 7th injection, mice were anesthetized with isoflurane and the whole spleen was dissected and stored at −80 °C for western blot analysis of protein level.
Supplementary Figure 8. Protein degradation by BTK PROTAC RC-1 in mouse spleen. ICR mice were subjected to single IP injection of RC-1 at the dose of 50 mg/kg (n = 4) or 100 mg/kg (n = 3) and spleens were harvested 24 h after injection. (a) The splenic p-BTK(Y233), BTK, IKZF1 and IKZF3 levels were measured with Western blot. (b). Quantification of protein levels shown in (a). Data are presented as mean values ± SEM.
Asterisks indicate that the differences between samples are statistically significant, using two-tailed, unpaired t- […]
test (* p < 0.05; significant).
(1 picture or pasted object on this page, not shown here)

[1] = target: T1, {BTK-PROTAC-CRBN} ternary complex (Homo sapiens, UniProt Q06187+Q96SW2); assay: BTK-SPPIER imaging of ternary complex formation in live cells; type: cell-based; details: HEK293T/17 cells, 10 µM
T1 construct: full-length CRBN was first cloned into pcDNA3 containing EGFP; expressed in transfected cells; host or cells: HEK293T/17
Text: To visualize small molecule-induced protein–protein interactions (PPIs), we recently applied fluorophore phase transition-based principle and designed a PPI assay named separation of phases-based protein interaction reporter (SPPIER)[36]. A SPPIER protein design includes three domains, a protein-of-interest, an enhanced GFP (EGFP), and a homo-oligomeric tag (HOTag). Upon small molecule-induced PPI between two proteins-of-interest, multivalent PPIs from HOTags drive EGFP phase separation, forming brightly fluorescent droplets. […] If PROTACs can induce {BTK-PROTAC-CRBN} ternary complex formation in cells, they will crosslink the BTK^KD-EGFP-HOTag6 tetramers and the CRBN-EGFP-HOTag3 hexamers to produce EGFP phase separation, which can be conveniently visualized with a fluorescence microscope. […]
HEK293T/17 cells were transiently transfected with the plasmid using calcium phosphate transfection reagent or lipofectamine. […] Fluorescence images were acquired with an exposure time of 50 ms for EGFP. […]
For analysis of the SPPIER signal, images were processed in imageJ. The sum of droplet pixel fluorescence intensity and cell pixel intensity was scored using the Analyze Particle function in imageJ.

BTK = BTK (Mus musculus, UniProt P35991); assay: Pharmacodynamics: splenic BTK level in mice (western blot); type: in vivo, ICR mice; set-up: from tissue; host or cells: spleen of female ICR mice; details: for BTK level, mean: Figure 5d, DMSO = 100; for BTK quantification: Supplementary Figure 8, individual animals
Method: The collected cells and spleen tissues were lysed in RIPA lysis buffer (50 mM Tris-HCl, pH 7.4, 150 mM NaCl, 1% NP-40, 0.5% sodium deoxycholate, 0.1% SDS) supplemented with Halt™ Protease and Phosphatase Inhibitor Cocktail (Thermo Fisher Scientific, Cat. No. PI78440) immediately before use. Lysates were centrifuged at 15,000 × g for 10 min at 4 °C and the supernatant was quantified for total protein concentration using the Pierce BCA Protein Assay (Thermo Fisher Scientific, Cat. No. 23225). Thirty micrograms of protein were loaded onto sodium dodecyl sulfate−polyacrylamide gel for electrophoresis (Bio-Rad) and transferred onto PVDF membranes (Millipore, Cat. No. IPVH00010). […] Imaging was performed using the ECL Prime chemiluminescent western blot detection reagents (GE Healthcare, Cat. No. RPN2232) by visualization of the blots to X-Ray film or with an Imager (Kindle Biosciences, Cat. No. D1001). All western blots were subsequently processed and quantified with Imager software. Protein level was normalized to β-actin or GAPDH loading controls.
as §1

BTK, sequence (P35991 whole entry): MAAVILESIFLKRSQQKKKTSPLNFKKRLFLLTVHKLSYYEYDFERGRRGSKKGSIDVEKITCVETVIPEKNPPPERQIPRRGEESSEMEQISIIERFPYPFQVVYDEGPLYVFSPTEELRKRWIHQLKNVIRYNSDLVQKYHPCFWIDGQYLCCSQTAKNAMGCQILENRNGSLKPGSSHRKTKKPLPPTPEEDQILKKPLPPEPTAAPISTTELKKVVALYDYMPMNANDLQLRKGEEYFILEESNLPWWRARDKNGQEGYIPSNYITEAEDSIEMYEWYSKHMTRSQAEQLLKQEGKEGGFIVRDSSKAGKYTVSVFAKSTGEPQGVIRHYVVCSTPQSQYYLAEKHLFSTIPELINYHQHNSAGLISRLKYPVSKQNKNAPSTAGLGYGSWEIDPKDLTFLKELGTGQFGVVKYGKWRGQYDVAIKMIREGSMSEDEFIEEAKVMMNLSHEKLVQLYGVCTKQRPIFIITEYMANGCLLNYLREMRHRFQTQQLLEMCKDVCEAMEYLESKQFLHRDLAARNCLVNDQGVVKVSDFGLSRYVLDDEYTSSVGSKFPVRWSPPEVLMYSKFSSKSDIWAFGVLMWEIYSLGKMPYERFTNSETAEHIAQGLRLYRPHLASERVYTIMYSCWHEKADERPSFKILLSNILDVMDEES
T1 sequence (Q06187 382-659 limits assumed): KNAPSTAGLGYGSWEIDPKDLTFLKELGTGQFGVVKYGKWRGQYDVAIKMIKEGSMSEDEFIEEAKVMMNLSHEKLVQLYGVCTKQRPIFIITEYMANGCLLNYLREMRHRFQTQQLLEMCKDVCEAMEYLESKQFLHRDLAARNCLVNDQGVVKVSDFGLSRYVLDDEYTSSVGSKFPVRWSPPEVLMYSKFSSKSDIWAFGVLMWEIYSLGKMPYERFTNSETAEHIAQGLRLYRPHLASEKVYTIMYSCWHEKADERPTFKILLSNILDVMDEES
T1 sequence (Q96SW2 whole entry): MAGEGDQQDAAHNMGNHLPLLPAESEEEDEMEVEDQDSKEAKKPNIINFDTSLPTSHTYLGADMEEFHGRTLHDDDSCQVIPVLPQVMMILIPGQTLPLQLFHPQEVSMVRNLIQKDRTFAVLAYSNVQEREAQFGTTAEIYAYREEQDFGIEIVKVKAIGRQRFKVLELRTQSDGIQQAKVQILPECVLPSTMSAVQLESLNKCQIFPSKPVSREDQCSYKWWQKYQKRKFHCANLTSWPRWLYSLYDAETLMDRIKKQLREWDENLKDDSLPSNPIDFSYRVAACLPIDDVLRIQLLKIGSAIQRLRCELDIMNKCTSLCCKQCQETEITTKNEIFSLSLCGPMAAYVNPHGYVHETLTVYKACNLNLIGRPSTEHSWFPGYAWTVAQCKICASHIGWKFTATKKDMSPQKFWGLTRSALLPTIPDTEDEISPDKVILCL

**Q.** What does the source list for `CN(CCCNC(=O)CNc1cccc2c1C(=O)N(C1CCC(=O)NC1=O)C2=O)C(C)(C)C=C(C#N)C(=O)N1CCC[C@@H](n2nc(-c3ccc(Oc4ccccc4)cc3)c3c(N)ncnc32)C1` (stereo partly shown) [RC-1]?
**A.** IKZF1 level, mean (IKZF1; 1 injection): 82.288; IKZF1 level, mean (IKZF1; 7 injections): 77.6802; IKZF1 quantification (IKZF1; RC-1 50 mg/kg, 50 mg/kg): 32.4273 and 61.2234 and 87.896 and 43.9089; IKZF1 quantification (IKZF1; RC-1 100 mg/kg, 100 mg/kg): 24.57 and 78.1459 and 58.0151; green fluorescent droplets (ternary complex formation) [1]: induced appreciable green fluorescent droplets; BTK level reduction in the spleens (BTK; 20 mg kg^−1 i.p., 7 daily injections, vs vehicle-treated mice): ~ 50%; BTK level, mean (BTK; 1 injection): 58.8522; BTK level, mean (BTK; 7 injections): 59.7357; BTK quantification (BTK; RC-1 50 mg/kg, 50 mg/kg): 56.2321 and 63.4217 and 82.4136 and 62.324; BTK quantification (BTK; RC-1 100 mg/kg, 100 mg/kg): 59.6665 and 43.7954 and 40.8615
